Patent publication US4835253A, “Specific inhibitors of tissue kallikrein” (The University Hospital, priority 1987, dated 1989)
Values joined by “and” are separate entries in the source; they are usually repeats but may differ in a detail not shown here. Identical values can stand only once. Like-named read-outs stand apart in the source and are kept apart here. One block for each compound: values may come before it. Ada = not defined here

Assays:
Human urinary kallikrein [1] = target: T1, Human urinary kallikrein (Homo sapiens, UniProt P06870); assay: KI determination: inhibition of HUK cleavage of chromogenic substrate S-2266; format: biochemical
T1 construct: Human urinary kallikrein (hereinafter "HUK") was highly purified using a modification of published methods; from tissue; host or cells: human urine
Experimental: (§1) Human urinary kallikrein (hereinafter "HUK") was highly purified using a modification of published methods that employ ultrafiltration, aprotinin-CH-sepharose affinity chromatography, and Sephadex G-100 gel filtration [ole-MoiYoi et al., Proc. Natl. Acad. Sci. USA 76: 3121-3125 (1979)]. […] The pH of each fraction was determined immediately upon elution, and the fraction was neutralized by addition of 2.0 ml of 2M Tris-HCL buffer (pH 8.0).
KI Determinations: KI measurements were performed using a HP8450A diode array spectrophotometer (Hewlett Packard; Palo Alto, Calif.) attached to a Model 216 computer using the multi-component assay program modified to allow simultaneous determination of reaction velocity in four samples. Dixon plots were used to data reduction and for calculation of […]. […] Inhibition of biologically active kinin from LMW-kininogen was done at pH 7.7 and 37 C.
Procedurally, the KI values for the preliminary analogue inhibitors reported previously [Okunishi et al., Hypertension 7 (Suppl. I): I-72-I-75 (1985)] were determined by adding the chromogenic substrate S-2266 comprising D-Val-Leu-Arg-4-nitroaniline to a mixture of the analogue inhibitor and the HUK.
(§2) Initially, the inhibitor constant (KI) for each of these novel inhibitor compositions was determined using purified HUK and the tripeptide nitroanilide, S-2266. The ability to inhibit hydrolysis of the S-2266 substrate was performed in 50 mM tris-HCL buffer (pH 9.0) at 37 C. Subsequently, the ability of these novel inhibitors to inhibit human plasma kallikrein and bovine pancreatic trypsin were similarly examined using the specific substrates H-D-Pro-Phe-Arg-p-nitroanilide (S-2302) and Glu-Gly-Arg-p-nitroanilide (S-2444) respectively. The degradation products of each series was purified by HPLC and quantified by liquid scintillation counting as previously described.

[2] = target: T2, bovine pancreatic trypsin (Bos taurus, UniProt P00760); assay: KI against trypsin with substrate S-2444; format: biochemical; details: read-out: K1, Trypsin
T2 sequence (P00760 24-246): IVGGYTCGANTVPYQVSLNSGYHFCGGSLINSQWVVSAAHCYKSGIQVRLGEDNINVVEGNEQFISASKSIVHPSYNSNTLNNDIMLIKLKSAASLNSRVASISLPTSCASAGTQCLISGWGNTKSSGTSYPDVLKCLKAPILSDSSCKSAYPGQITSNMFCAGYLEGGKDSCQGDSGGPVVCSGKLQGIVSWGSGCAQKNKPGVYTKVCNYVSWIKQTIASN
Experimental: as §2

Human urinary kallikrein [3] = target: T1, Human urinary kallikrein; assay: KM determination: hydrolysis of substrate analogues by HUK (HPLC, scintillation counting); format: biochemical; details: analysis of the reaction products
Experimental: as §1
KM Determination: Hydrolysis of the substrate analogue inhibitors by HUK was measured by combining the test inhibitor at different concentrations on either side of the KM value with the enzyme at pH 9.0 for thirty minutes at 37 C. The cleavage products were separated from the starting material in the digest by HPLC on a Beckman octadecylsilane (ODS) column (1×25 cm) using a thirty minute gradient of from 0-70% CH3 CN in triethylammonium phosphate buffer (pH 7.0). The starting materials and reaction products were completely resolved under these conditions. Absorbance of the HPLC effluent was monitored at 220 nm. Individual fractions were collected and the amount of peptide degradation products was quantitated by counting in a liquid scintillation counter. Samples containing individual inhibitors were incubated without HUK and solvent blanks were also chromatographed and analyzed in the same way.
For test purposes, in these HUA cleavage studies, individual peptide sequences were synthesized, purified, and characterized as previously described herein. For these cleavage studies, doubly labelled peptides were prepared using [^3 H]-valine and […] respectively. In addition, 6.0N HCL-dioxane was used for removal of tert-butoxycarbonyl protecting groups and 90% hydrogen fluoride/10% anisole (volume/volume) for global deprotection on completion of the synthesis. After extraction and gel filtration on Sephadex G-15, final purification was completed by isocratic elution from a synchrom RP-P column (2.1×25 cm) with CH3 CN--H2 O (8 ml/min). The resultant peptides were deemed to be homogeneous by amino acid analysis; high performance liquid chromatography; thin layer chromatography; and A230 /A260 ratio analysis. […]

[4] = target: porcine pancreatic kallikrein (Sus scrofa, UniProt P00752); assay: Rat femoral artery blood flow response to PPK during and after inhibitor infusion; format: in vivo
Source text: (§3) In order to develop a more reproducible, less tachyphylactic system, a rat blood flow model was developed and assessed in male Sprague-Dawley rats. These animals were anesthetized subcutaneously with urethane (1.4 g/kg). Polyethylene PE-10 tubing was inserted into the right femoral artery and femoral vein for intra-arterial and intravenous injections, respectively, the arterial catheter was inserted such that the tip was located immediately proximal to the bifurcation. The rats were tracheostomized and cannulated with PE-200 tubing. A subcutaneous 23 gauge needle was left in the back of the animal for booster injections of urethane (0.35 g/kg every 2.5 hours). A blood flow probe (1.5 mm circumference) was placed on the left femoroal artery and the mean femoral arterial blood flow was monitored with a square-wave electromagnetic flowmeter (Carolina Medical Electronics, model 501). Rat submaxillary gland kallikrein (hereinafter "RSK") or porcine pancreatic kallikrein (hereinafter "PPK") was given intra-arterially, unless otherwise indicated, until a reproducible response was obtained. Each animal was then infused intravenously with KKI-7 inhibitor in DMSO (206 nmole/0.022 ml/min) or with the DMSO vehicle (0.022 ml/min). Bradykinin was also given intra-arterially to determine whether or not the KKI-7 inhibitor effected the blood flow response to bradykinin. The magnitude and duration of the responses to PPK, RSK, and bradykinin were compared before, during, and after the intravenous infusion of KKI-7 or the DMSO vehicle alone. The blood flow increase over the basal blood flow was integrated and expressed as arbitrary units or as the percent change from blood flow increased observed during the control period. The results are provided by FIG. 1 and Table IV below.

[5] = Mean arterial blood pressure in normotensive, salt-replete rats (infusion or bolus); format: in vivo, rat
Experimental: Subsequently, a third study utilizing normotensive, salt-replete rats was performed employing an infusion of KKI-7 at a rate of 200 ug of inhibitor per kilogram of rat per minute (200 ug/kg/min). Eight rats each received this infusion for 15 minutes during which the change in mean arterial blood pressure (Torr) was monitored. The results are provided by FIG. 2. In addition, a series of bolus injections were given to conscious, salt-replete, normotensive rats to determine the ED50 dosage necessary to cause a substantive increase in blood pressure. The results are graphically illustrated by FIG. 3 as the log-dose response effect of KKI-7 upon blood pressure.

bradykinin = assay: Rat femoral artery blood flow response to bradykinin during inhibitor infusion; format: in vivo
Source text: as §3, with “Each animal was then infused intravenously with KKI-7 inhibitor in DMSO (206 nmole/0.022 ml/min) or with the DMSO vehicle (0.022 ml/min). Bradykinin was also given intra-arterially to determine whether or not the KKI-7 inhibitor effected the blood flow response to bradykinin. The magnitude and duration of the responses to PPK, RSK, and bradykinin were compared before, during, and after the intravenous infusion of KKI-7 or the DMSO vehicle alone.” left out, “The results are provided by FIG. 1 and Table IV below.” left out

[6] = target: T3, rat submaxillary gland kallikrein (Rattus norvegicus, UniProt P00758); assay: Rat femoral artery blood flow response to RSK during and after inhibitor infusion; format: in vivo
T3 sequence (P00758 25-261): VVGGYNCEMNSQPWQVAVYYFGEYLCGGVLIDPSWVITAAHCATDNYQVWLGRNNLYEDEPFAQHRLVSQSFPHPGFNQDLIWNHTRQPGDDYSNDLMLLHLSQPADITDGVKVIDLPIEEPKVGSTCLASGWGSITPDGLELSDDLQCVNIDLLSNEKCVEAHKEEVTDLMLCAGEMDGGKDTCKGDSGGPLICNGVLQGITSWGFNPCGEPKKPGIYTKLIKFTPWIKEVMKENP
Source text: as §3

[7] = Effects of the inhibitor infusion itself in the rat blood flow model; format: in vivo
Source text: as §3, with “Each animal was then infused intravenously with KKI-7 inhibitor in DMSO (206 nmole/0.022 ml/min) or with the DMSO vehicle (0.022 ml/min). Bradykinin was also given intra-arterially to determine whether or not the KKI-7 inhibitor effected the blood flow response to bradykinin. The magnitude and duration of the responses to PPK, RSK, and bradykinin were compared before, during, and after the intravenous infusion of KKI-7 or the DMSO vehicle alone.” left out, “The results are provided by FIG. 1 and Table IV below.” left out

Human Plasma Kallikrein = Human Plasma Kallikrein (Homo sapiens, UniProt P03952); assay: KI against plasma kallikrein with substrate S-2302; format: biochemical; details: read-out: K1, Human Plasma Kallikrein
Experimental: as §2

Rat urinary kallikrein = target: T4, Rat urinary kallikrein (Rattus norvegicus, UniProt P00758); assay: Blood pressure response to injected rat urinary kallikrein during inhibitor infusion; format: in vivo; details: infusion 32 nmol/min/animal, anesthetized rats, RUK 203.5 ng
T4 sequence (P00758 25-261): T3 sequence (P00758 25-261)
Experimental: A series of in-vivo studies were undertaken to determine the effective of the KKI-7 and KKI-8 inhibitors on the blood pressure response to glandular kallikrein. Initially, three female Dahl hypertension-resistant rats (Brookhaven Laboratories, Brookhaven, N.Y.), and four male Sprague-Dewley rats (Charles River, Wilmington, Mass.) were utilized. Each of these animals was anesthetized with Inactin (100 mg/kg ip) and cannulated in a femoral artery with PE-50 polyethylene tubing (Clay Adams, Parsippany, N.J.) which was connected to a Hewlett-Packard model 1280 blood pressure transducer and model 7702B recorder. The right jugular vein was cannulated with PE-10 tubing. The rats were tracheostomized, but respiration was not artificially assisted. Rat urinary kallikrein (hereinafter "RUK") was repeatedly administered via a venous cannula until a reproducable response was obtained. KKI-8 inhibitor was then infused using a Harvard model 901 infusion pump at a rate of 32 nmol/0.022 ml/min. RUK (203.5 ng in 50 ul) was injected during the infusion period. After the infusion was stopped, the reversibility of the inhibition was examined by further injections of RUK. The infusion of KKI-8 (32 nmol/min/animal) inhibited the very gradual and modest decrease in blood pressure otherwise elicited with RUK.

[8] = HUK, S-2266, text, read-out: KI values
[9] = S-2266, 50 mM tris-HCL pH 9.0, 37 C, read-out: K1, Human Urinary Kallikrein
[10] = iv infusion 206 nmole/0.022 ml/min in DMSO, 2 units PPK
[11] = iv infusion 206 nmole/0.022 ml/min in DMSO

Sequence of porcine pancreatic kallikrein (P00752 8-246): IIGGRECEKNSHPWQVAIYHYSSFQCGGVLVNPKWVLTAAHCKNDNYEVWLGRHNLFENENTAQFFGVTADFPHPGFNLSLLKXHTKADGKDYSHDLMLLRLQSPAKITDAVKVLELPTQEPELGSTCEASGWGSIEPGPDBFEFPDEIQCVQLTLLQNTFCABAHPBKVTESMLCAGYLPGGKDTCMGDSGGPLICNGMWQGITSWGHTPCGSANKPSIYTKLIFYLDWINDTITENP
T1 sequence (P06870 25-262): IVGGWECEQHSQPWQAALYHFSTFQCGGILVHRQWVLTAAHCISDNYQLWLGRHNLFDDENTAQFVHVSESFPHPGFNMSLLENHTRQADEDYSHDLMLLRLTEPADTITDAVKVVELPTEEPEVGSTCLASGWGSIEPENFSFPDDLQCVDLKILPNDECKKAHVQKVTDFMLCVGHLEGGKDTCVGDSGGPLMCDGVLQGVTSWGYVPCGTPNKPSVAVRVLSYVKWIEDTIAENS
Sequence of Human Plasma Kallikrein (P03952 20-638): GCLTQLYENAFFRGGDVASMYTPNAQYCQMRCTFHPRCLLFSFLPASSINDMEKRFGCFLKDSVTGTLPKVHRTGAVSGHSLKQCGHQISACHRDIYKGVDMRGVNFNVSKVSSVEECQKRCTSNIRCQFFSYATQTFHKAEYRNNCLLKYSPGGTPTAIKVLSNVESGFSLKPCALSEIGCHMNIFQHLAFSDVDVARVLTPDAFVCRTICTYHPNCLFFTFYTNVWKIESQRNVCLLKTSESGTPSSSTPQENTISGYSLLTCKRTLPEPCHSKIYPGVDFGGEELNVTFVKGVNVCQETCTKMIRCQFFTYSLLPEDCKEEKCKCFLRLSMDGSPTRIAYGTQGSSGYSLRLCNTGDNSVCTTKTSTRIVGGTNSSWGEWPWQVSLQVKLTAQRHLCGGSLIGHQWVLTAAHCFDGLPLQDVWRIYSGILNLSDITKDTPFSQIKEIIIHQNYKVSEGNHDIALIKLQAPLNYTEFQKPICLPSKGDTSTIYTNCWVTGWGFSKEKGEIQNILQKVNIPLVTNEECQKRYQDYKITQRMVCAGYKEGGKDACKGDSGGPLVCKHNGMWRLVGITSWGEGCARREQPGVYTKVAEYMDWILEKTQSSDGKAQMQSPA

- Ki (Human urinary kallikrein [1]; [8]): 4 µM
- Ki (Human urinary kallikrein [1]; [9]): 4 µM
- Ki [2]: 12.3 µM
- rate of cleavage by HUK relative to hexapeptides containing proline in the P3 position (Human urinary kallikrein [3]): approximately 15%
- response to the injection of PPK ([4]; 2 units of PPK, during and after infusion): reduced
- CHANGE IN BLOOD FLOW (% OF CONTROL), PPK injected, AFTER INFUSION 30-60 min [4, 10]: 52%
- CHANGE IN BLOOD FLOW (% OF CONTROL), PPK injected, DURING INFUSION 10-30 min [4, 10]: 31%
- CHANGE IN BLOOD FLOW (% OF CONTROL), PPK injected, DURING INFUSION <10 min [4, 10]: 38%
- second phase of the response to RSK, of the control value, individual values ([6]; RSK reinjected 10-30 minutes after the infusion was started): 6% and 26%
- CHANGE IN BLOOD FLOW (% OF CONTROL), RSK injected, AFTER INFUSION 30-60 min [6, 11]: 35%
- CHANGE IN BLOOD FLOW (% OF CONTROL), RSK injected, AFTER INFUSION <10 min [6, 11]: 11%
- CHANGE IN BLOOD FLOW (% OF CONTROL), RSK injected, DURING INFUSION 10-30 min [6, 11]: 16%
- CHANGE IN BLOOD FLOW (% OF CONTROL), RSK injected, DURING INFUSION <10 min [6, 11]: 52%
- response to RSK injections, of the control response, range ([6]; within the first ten minutes after infusion was begun): 49-56%
- Ki (Human Plasma Kallikrein): 244 µM
Compound: CC(C)[C@H](NC(=O)[C@H](CO)NC(=O)[C@H](CCCNC(=N)N)NC(=O)[C@H](Cc1ccccc1)NC(=O)CC1CCCCC1)C(=O)N[C@@H](CCC(N)=O)C(N)=O [KKI-7, Cha-Phe-Arg-Ser-Val-Gln-NH2]
- effect on mean arterial blood pressure ([5]; bolus injection or infusion 200 ug/kg/min for 15 minutes): induces substantial increases
- ED50 dose, increase in blood pressure ([5]; bolus injections, conscious, salt-replete, normotensive rats): 0.75 mg/kg
- effect on the response to bradykinin (bradykinin; bradykinin injected during the inhibitor infusion): no affect
- CHANGE IN BLOOD FLOW (% OF CONTROL), BK injected, DURING INFUSION <10 min (bradykinin; iv infusion 206 nmole/0.022 ml/min in DMSO, 1-2 ng bradykinin): 95%
- side-effects of infusing ([7]; during the experimental period): No specific side-effects
- change in blood flow caused by the infusion itself ([7]; infusion in the DMSO vehicle): moderate, transient increase in blood flow

- Ki (Human urinary kallikrein [1]; [8]): 4.2 µM
- Ki (Human urinary kallikrein [1]; [9]): 4.2 µM
- Ki [2]: 71.8 µM
- rate of cleavage by HUK relative to hexapeptides containing proline in the P3 position (Human urinary kallikrein [3]): approximately 15%
- Ki (Human Plasma Kallikrein): 358 µM
Compound: Ada-Phe-Arg-Ser-Val-Gln-NH2 (Ada-FRSVQ-NH2; reading uncertain; also: printed as Ada-Phe-Arg-Ser-Val-Gln-NH2) [KKI-8]
- effect on decrease in blood pressure elicited with RUK (Rat urinary kallikrein): inhibited
